Measurements published in PubChem BioAssay AID1963840 (Molecular Pharmacology Branch, DTP, NCI, 2024).

Test system: 695427-040-R-J1-PDC complex spheroid viability
Experiment: Anticancer human tumor 695427-040-R-J1-PDC patient-derived colon adenocarcinoma cell line growth inhibition [POLQ]
Conditions: for IC50: curve of first compound; for viability, T/C: stronger effect = lower value
Method: Multicellular complex tumor spheroid response to Polymerase (POL) inhibitors (novobiocin, ART-558, RP6685) in combination with a variety of drugs and investigational agents in selected tumor cell lines
The POL inhibitors (novobiocin, ART-558, and RP6685) were evaluated both individually and in combination with standard of care and investigational anticancer small molecules within a complex spheroid model of solid tumors. . Complex spheroids include a stromal component modeled by human endothelial cells (HUVEC) and fibroblasts modeled by human mesenchymal stem cells (MSCs). The concentration ranges selected for each drug and investigational agent were based upon clinically achievable concentrations if the clinical Cmax of the agent was known.
Compounds. The drugs and investigational agents: novobiocin (NSC847541), ART-558 (NSC835418), RP-6685 (NSC848927), peposertib (NSC802822), ceralasertib (NSC780249), elimusertib (NSC800525), camonsertib (NSC841442), AZD-1390 (NSC803789), olaparib (NSC753686), talazoparib (NSC767125), rucaparib (NSC756644), sotorasib (NSC818433), MRTX-1133 (NSC836407), SN-38 (NSC673596), topotecan (NSC609699), epotoside (NSC141540), doxorubicin (NSC123127), gemcitabine (NSC613327), 5-fluorouracil (NSC19893), paclitaxel (NSC125973), vemurafenib (NSC761431), MSA-2 (NSC828583), SN-011 (NSC837082), adavosertib (NSC754352), prexasertib (NSC758257), carboplatin (NSC241240) and oxaliplatin (NSC266046), were obtained from the National Cancer Institute (NCI) Developmental Therapeutics Program Chemical Repository (21). The FDA-approved anticancer drug set is available from the Developmental Therapeutics Program at https://dtp.cancer.gov/organization/dscb/obtaining/. […] The stock solutions were prepared in dimethyl sulfoxide (DMSO, Sigma-Aldrich, St. Louis, MO, cat. D2650), except for the platinum compounds which were prepared in saline (Quality Biological, Gaithersburg, MD, cat. 114-055-101), at 800-fold the tested concentration and stored at -70 degrees C prior to their use. All drugs and investigational agents were tested over a range starting from a high concentration at or near the clinical Cmax and decreasing in half-log increments. If the clinical Cmax for an agent had not been determined, the highest concentration tested was 10 microM, except for SN-38, which was tested at a high concentration of 1 microM.
Cell Culture. All cells were maintained in an incubator at 37 degrees C and 5% CO2 with 95% humidity. The PDC lines were cultured according to standard operating procedures established by the NCI PDMR (https://pdmr.cancer.gov). Table 3 of the manuscript, lists the cell lines along with the number of the three cell types plated to form the mct-spheroids and media for tumor cell growth. After thawing, all PDC lines, except 997537-175-T-J1-PDC and 415267-285-R-J2-PDC, were cultured in Matrigel-coated flasks prepared with a working solution of 1X Ham's F-12 nutrient mix, without supplementation (Thermo Fisher Scientific, cat. 11765054), 100 U/mL penicillin-streptomycin (Thermo Fisher Scientific, cat. 15140122), and 2.5% Matrigel (Corning Inc., Corning, NY, cat. 354248) for the first three passages. The two PDC lines 997537-175-T-J1-PDC and 415267-285-R-J2-PDC were cultured on uncoated flasks. The 857933-349-R-J2-PDC line was cultured in 6C/Colon 1B media containing advanced DMEM/F-12 (Thermo Fisher Scientific, cat. 12634028), 10 mM HEPES (Thermo Fisher Scientific, cat. 15630080), 1X GlutaMAX supplement (Thermo Fisher Scientific, cat. 35050061), 0.1 mg/mL primocin (InvivoGen, San Diego, CA, cat. ant-pm-2), 10% defined fetal bovine serum, heat inactivated (HyClone Laboratories Inc., Logan, UT, cat. SH30070.03HI), 50% L-WRN conditioned media (ATCC, cat. CRL-3276), 1.25 mM N-Acetyl-L-cysteine (Sigma-Aldrich, cat. A9165), 10 mM nicotinamide (Sigma-Aldrich, cat. N0636), 1X B-27 supplement (Thermo Fisher Scientific, cat. 17504044), 1X N-2 supplement (Thermo Fisher Scientific, cat. […]

[1] = second compound 0.0316 µM, first compound 0.0316 µM
[2] = second compound 0.0316 µM, first compound 0.1 µM
[3] = second compound 0.0316 µM, first compound 0.316 µM
[4] = second compound 0.0316 µM, first compound 1 µM
[5] = second compound 0.1 µM, first compound 0.0316 µM
[6] = second compound 0.1 µM, first compound 0.1 µM
[7] = second compound 0.1 µM, first compound 0.316 µM
[8] = second compound 0.1 µM, first compound 1 µM
[9] = second compound 0.316 µM, first compound 0.0316 µM
[10] = second compound 0.316 µM, first compound 0.1 µM
[11] = second compound 0.316 µM, first compound 0.316 µM
[12] = second compound 0.316 µM, first compound 1 µM
[13] = second compound 1 µM, first compound 0.0316 µM
[14] = second compound 1 µM, first compound 0.1 µM
[15] = second compound 1 µM, first compound 0.316 µM
[16] = second compound 1 µM, first compound 1 µM
[17] = second compound 3.16 µM, first compound 0.0316 µM
[18] = second compound 3.16 µM, first compound 0.1 µM
[19] = second compound 3.16 µM, first compound 0.316 µM
[20] = second compound 3.16 µM, first compound 1 µM
[21] = second compound 10 µM, first compound 0.0316 µM
[22] = second compound 10 µM, first compound 0.1 µM
[23] = second compound 10 µM, first compound 0.316 µM
[24] = second compound 10 µM, first compound 1 µM
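Further: spheroids exposed to compounds for seven days.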
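Wherever viability, T/C is given: 100% = DMSO vehicle control viability.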

CNCc1ccc(-c2[nH]c3cc(F)cc4c3c2CCNC4=O)cc1 + Nc1ccc(C#CCN(C(=O)Cc2ncc(C(F)(F)F)cc2C(F)(F)F)c2ccc(F)cc2)nn1 was tested, and the IC50 (second compound 0.0316 µM) was greater than 10 µM, the IC50 (second compound 0.1 µM) was greater than 10 µM and the IC50 (second compound 0.316 µM) was greater than 10 µM. The IC50 (second compound 1 µM) was greater than 10 µM, the IC50 (second compound 3.16 µM) was greater than 10 µM and the IC50 (second compound 10 µM) was greater than 10 µM. For the same compound, the viability, T/C [1] was 101%, the viability, T/C [2] was 101% and the viability, T/C [3] was 106%. The viability, T/C [4] was 108%, the viability, T/C (second compound 0.0316 µM, first compound 3.16 µM) was 110% and the viability, T/C (second compound 0.0316 µM, first compound 10 µM) was 107%. The viability, T/C [5] was 114%, the viability, T/C [6] was 110% and the viability, T/C [7] was 104%. The viability, T/C [8] was 104%, the viability, T/C (second compound 0.1 µM, first compound 3.16 µM) was 118% and the viability, T/C (second compound 0.1 µM, first compound 10 µM) was 109%. The viability, T/C [9] was 119%, the viability, T/C [10] was 102% and the viability, T/C [11] was 96.1%. For the same compound, the viability, T/C [12] was 104%, the viability, T/C (second compound 0.316 µM, first compound 3.16 µM) was 115% and the viability, T/C (second compound 0.316 µM, first compound 10 µM) was 104%. The viability, T/C [13] was 117%, the viability, T/C [14] was 94% and the viability, T/C [15] was 98.1%. For the same compound, the viability, T/C [16] was 103%, the viability, T/C (second compound 1 µM, first compound 3.16 µM) was 112% and the viability, T/C (second compound 1 µM, first compound 10 µM) was 107%. The viability, T/C [17] was 103%, the viability, T/C [18] was 111% and the viability, T/C [19] was 97.2%. For the same compound, the viability, T/C [20] was 112%, the viability, T/C (second compound 3.16 µM, first compound 3.16 µM) was 113% and the viability, T/C (second compound 3.16 µM, first compound 10 µM) was 118%. It also gave a viability, T/C [21] of 105%, a viability, T/C [22] of 98.6% and a viability, T/C [23] of 92.3%. The viability, T/C [24] was 105%, the viability, T/C (second compound 10 µM, first compound 3.16 µM) was 105% and the viability, T/C (second compound 10 µM, first compound 10 µM) was 102%.

COc1cccc(OCCCN)c1-c1cc(Nc2cnc(C#N)cn2)n[nH]1 + Nc1ccc(C#CCN(C(=O)Cc2ncc(C(F)(F)F)cc2C(F)(F)F)c2ccc(F)cc2)nn1 showed an IC50 (second compound 0.0316 µM) greater than 1 µM, an IC50 (second compound 0.1 µM) greater than 1 µM and an IC50 (second compound 0.316 µM) greater than 1 µM. For the same compound, the IC50 (second compound 1 µM) was greater than 1 µM, the IC50 (second compound 3.16 µM) was greater than 1 µM and the IC50 (second compound 10 µM) was 0.252 µM. The viability, T/C (second compound 0.0316 µM, first compound 0.00316 µM) was 106%, the viability, T/C (second compound 0.0316 µM, first compound 0.01 µM) was 99.7% and the viability, T/C [1] was 94.4%. The viability, T/C [2] was 82.8%, the viability, T/C [3] was 68.8% and the viability, T/C [4] was 53.5%. The viability, T/C (second compound 0.1 µM, first compound 0.00316 µM) was 115%, the viability, T/C (second compound 0.1 µM, first compound 0.01 µM) was 94.1% and the viability, T/C [5] was 88.7%. For the same compound, the viability, T/C [6] was 85.7%, the viability, T/C [7] was 66.3% and the viability, T/C [8] was 51.9%. For the same compound, the viability, T/C (second compound 0.316 µM, first compound 0.00316 µM) was 104%, the viability, T/C (second compound 0.316 µM, first compound 0.01 µM) was 101% and the viability, T/C [9] was 80.9%. For the same compound, the viability, T/C [10] was 82.1%, the viability, T/C [11] was 73.6% and the viability, T/C [12] was 49.7%. It also gave a viability, T/C (second compound 1 µM, first compound 0.00316 µM) of 105%, a viability, T/C (second compound 1 µM, first compound 0.01 µM) of 94.2% and a viability, T/C [13] of 91.6%. For the same compound, the viability, T/C [14] was 85.4%, the viability, T/C [15] was 70.3% and the viability, T/C [16] was 50.7%. For the same compound, the viability, T/C (second compound 3.16 µM, first compound 0.00316 µM) was 95.3%, the viability, T/C (second compound 3.16 µM, first compound 0.01 µM) was 90.1% and the viability, T/C [17] was 80%. For the same compound, the viability, T/C [18] was 69%, the viability, T/C [19] was 59.4% and the viability, T/C [20] was 50.2%. The viability, T/C (second compound 10 µM, first compound 0.00316 µM) was 95.8%, the viability, T/C (second compound 10 µM, first compound 0.01 µM) was 86.2% and the viability, T/C [21] was 69.7%. The viability, T/C [22] was 59%, the viability, T/C [23] was 46.6% and the viability, T/C [24] was 44.3%.
